# Results as given in patent US9273003B2, “Methods of treating lymphoma and rheumatoid arthritis with cyclopentyl (2S)-cyclohexyl[({6-[3-(hydroxyamino)-3-oxopropyl]pyridin-3-yl}methyl)amino]acetate” (GlaxoSmithKline Intellectual Property Development Limited, priority 2006, dated 2016).
# Read-outs that look alike come from different tables or passages of the source.
# Experiments:
# [1] = system: intracellular carboxylesterases (U937 cell extract); experiment: Broken cell carboxylesterase assay, U937 cell extract; assay type: in vitro ADME; conditions: ester 2.5 μM, 37° C.
# Protocol: Any given compound of the present invention wherein R1 is an ester group may be tested to determine whether it meets the requirement that it be hydrolysed by intracellular esterases, by testing in the following assay.
# U937 or Hut78 tumour cells (˜10^9) were washed in 4 volumes of Dulbeccos PBS (˜1 liter) and pelleted at 525 g for 10 min at 4° C. This was repeated twice and the final cell pellet was resuspended in 35 mL of cold homogenising buffer (Trizma 10 mM, NaCl 130 mM, CaCl2 0.5 mM pH 7.0 at 25° C.). Homogenates were prepared by nitrogen cavitation (700 psi for 50 min at 4° C.). The homogenate was kept on ice and supplemented with a cocktail of inhibitors at final concentrations of: • Leupeptin 1 μM • Aprotinin 0.1 μM • E64 8 μM • Pepstatin 1.5 μM • Bestatin 162 μM • Chymostatin 33 μM After clarification of the cell homogenate by centrifugation at 525 g for 10 min, the resulting supernatant was used as a source of esterase activity and was stored at −80° C. until required. Measurement of Ester Cleavage
# Hydrolysis of esters to the corresponding carboxylic acids can be measured using the cell extract, prepared as above. To this effect cell extract (˜30 μg/total assay volume of 0.5 ml) was incubated at 37° C. in a Tris-HCl 25 mM, 125 mM NaCl buffer, pH 7.5 at 25° C. At zero time the ester (substrate) was then added at a final concentration of 2.5 μM and the samples were incubated at 37° C. for the appropriate time (usually 0 or 80 min). Reactions were stopped by the addition of 3× volumes of acetonitrile. For zero time samples the acetonitrile was added prior to the ester compound. After centrifugation at 12000 g for 5 min, samples were analysed for the ester and its corresponding carboxylic acid at room temperature by LCMS (Sciex API 3000, HP1100 binary pump, CTC PAL). Chromatography was based on an AceCN (75×2.1 mm) column and a mobile phase of 5-95% acetonitrile in water/0.1% formic acid.
# Rates of hydrolysis are expressed in pg/mL/min.
# U937 cells = experiment: U937 cell inhibition assay (WST-1 cell viability); assay type: cell-based; conditions: for IC50: Homo sapiens, U-937
# How it was run: (§1)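 Log-phase cells seeded at 1000-2000/well, grown 24 h, then exposed to compound for 72-96 h before WST-1 viability readout. Eight concentrations (top 10 μM final, 3-fold steps), 6 replicates; % inhibition versus DMSO, IC50 by sigmoidal variable-slope fit.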
# [2] = target: histone deacetylase activity (HeLa nuclear extract); experiment: HDAC fluorescent activity assay (Fluor de Lys, Biomol); assay type: biochemical
# How it was run: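 HeLa nuclear extract as HDAC source incubated with acetyl-lysine Fluor de Lys substrate ± inhibitor; developer then releases fluorophore from deacetylated substrate. Activity as % of vehicle control after no-enzyme background subtraction; IC50 from eight-point variable-slope sigmoidal fit.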
# HeLa cells = experiment: HeLa cell inhibition assay (sulphorhodamine B cell viability); assay type: cell-based; conditions: Homo sapiens, IC50 allocated to ranges
# Protocol: HeLa cells growing in log phase were harvested and seeded at 1000 cells/well (200 μl final volume) into 96-well tissue culture plates. Following 24 h of cell growth cells were treated with compounds (final concentration of 20 μM). Plates were then re-incubated for a further 72 h before a sulphorhodamine B (SRB) cell viability assay was conducted according to the methodology described by Skehan et al, J. Natl. Canc. Inst., 1990, 82, 1107-1112.
# Data were expressed as a percentage inhibition of the control, measured in the absence of inhibitor, as follows:— % inhibition=100−[(S^i/S^o)×100] where S^i is the signal in the presence of inhibitor and S^o is the signal in the presence of DMSO.
# IC50 values were determined by non-linear regression analysis, after fitting the results of eight data points to the equation for sigmoidal dose response with variable slope (% activity against log concentration of Compound), using Graphpad Prism software.
# HUT78 cells = experiment: HUT cell inhibition assay (WST-1 cell viability); assay type: cell-based; conditions: Homo sapiens
# How it was run: as §1
# [3] = U937 cells, IC50 allocated to ranges, read-out: U937 activity
# [4] = IC50 allocated to ranges, read-out: HDAC activity
# [5] = HUT78 cells, IC50 allocated to ranges, read-out: HUT activity
Hydrolysis Rate Range U937 Cells [1] [pg/mL/min],IC50 (U937 cells; [3]) [nM],"IC50 [2, 4] [nM]",IC50 (HeLa cells) [nM],"IC50 (U937 cells; U937 monocytic cell line, read-out: Inhibition of U937 cell proliferation (IC50-nM)) [nM]",IC50 ([2]; read-out: Inhibition of HDAC (IC50-nM)) [nM],Structure (SMILES),IC50 (HUT78 cells; [5]) [nM],"fold more potent as anti-proliferative agent than belinostat (U937 cells; monocytic cell line U937, versus belinostat) [fold]","IC50 (HUT78 cells; HUT78 non-monocytic cell line, read-out: Inhibition of HUT78 cell proliferation (IC50-nM)) [nM]"
>50000,,,,,,Cc1ccc2cc(C(=O)NO)sc2c1 [drawing 98],,,
1000 to 50000,,,,,,Cc1ccc(NCc2cnc3nc(N)nc(N)c3c2C)cc1 [drawing 92],,,
1000 to 50000,,,,,,Cc1ccc2cc(C(=O)NO)sc2c1 [drawing 84],,,
>50000,,,,,,Cc1ccc(NCc2cnc3nc(N)nc(N)c3c2C)cc1 [drawing 96],,,
>50000,,,,,,Cc1ccc2cc(C(=O)NO)sc2c1 [drawing 87],,,
,< 330,< 100,331 to 3300,,,"O=C(/C=C/c1ccc(CN[C@H](C(=O)OC2CC3CCC2C3)C2CCCCC2)cn1)NO (stereo partly drawn) [Example 58, Bicyclo[2.2.1]hept-2-yl (2S)-cyclohexyl[({6-[(1E)-3-(hydroxyamino)-3-oxoprop-1-en-1-yl]pyridin-3-yl}methyl)amino]acetate]",< 330,,
,< 330,101 to 1000,331 to 3300,,,"CC1CCC(OC(=O)[C@@H](NCc2ccc(/C=C/C(=O)NO)cc2)C2CCCCC2)C1 (stereo partly drawn) [Example 28, 3-Methylcyclopentyl (2S)-cyclohexyl({4-[(1E)-3-(hydroxyamino)-3-oxoprop-1-en-1-yl]benzyl}amino)acetate]",331 to 3300,,
,331 to 3300,101 to 1000,> 3300,,,"O=C(/C=C/c1cccc(CN[C@H](C(=O)OC2CCCC2)C2CCCCC2)c1)NO [Example 12, Cyclopentyl (2S)-cyclohexyl({3-[(1E)-3-(hydroxyamino)-3-oxoprop-1-en-1-yl]benzyl}amino)acetate]",331 to 3300,,
,< 330,< 100,331 to 3300,,,"CCOC(=O)[C@@H](NCc1ccc(/C=C/C(=O)NO)cc1)C1CCCCC1 [Example 21, Ethyl (2S)-cyclohexyl({4-[(1E)-3-(hydroxyamino)-3-oxoprop-1-en-1-yl]benzyl}amino)acetate]",< 330,,
>50000,,,,,,Cc1ccc2cc(C(=O)NO)sc2c1 [drawing 101],,,
,< 330,101 to 1000,331 to 3300,,,"CC(C)C[C@H](NCc1ccc(CCC(=O)NO)cc1)C(=O)OC1CC2CCC1C2 (stereo partly drawn) [Example 36, Bicyclo[2.2.1]hept-2-yl N-{4-[3-(hydroxyamino)-3-oxopropyl]benzyl}-L-leucinate]",< 330,,
,< 330,< 100,331 to 3300,5,59,"O=C(/C=C/c1ccc(CN[C@H](C(=O)OC2CCCC2)C2CCCCC2)cc1)NO [Example 14, Cyclopentyl (2S)-cyclohexyl({4-[(1E)-3-(hydroxyamino)-3-oxoprop-1-en-1-yl]benzyl}amino)acetate]",< 330,30,230
,331 to 3300,< 100,331 to 3300,,,"O=C(/C=C/c1ccc(CN2CCC(CN[C@H](C(=O)OC3CCCC3)c3ccccc3)CC2)cc1)NO [Example 82, Cyclopentyl (2S)-{[(1-{4-[(1E)-3-(hydroxyamino)-3-oxoprop-1-en-1-yl]benzyl}piperidin-4-yl)methyl]amino}(phenyl)acetate]",331 to 3300,,
,331 to 3300,101 to 1000,331 to 3300,,,"O=C(/C=C/c1cccc(CNCc2ccc(CN[C@H](C(=O)OC3CCCC3)C3CCCCC3)cc2)c1)NO [Example 73, Cyclopentyl (2S)-cyclohexyl({4-[({3-[(1E)-3-(hydroxyamino)-3-oxoprop-1-en-1-yl]benzyl}amino)methyl]benzyl}amino)acetate]",331 to 3300,,
,< 330,< 100,331 to 3300,,,"CC(C)C[C@H](NCc1ccc(/C=C/C(=O)NO)cc1)C(=O)OC1CCCC1 [Example 15, Cyclopentyl N-{4-[(1E)-3-(hydroxyamino)-3-oxoprop-1-en-1-yl]benzyl}-L-leucinate]",< 330,,
,< 330,101 to 1000,331 to 3300,,,"CC1CCCC1OC(=O)[C@@H](NCc1ccc(/C=C/C(=O)NO)cc1)C1CCCCC1 (stereo partly drawn) [Example 27, 2-Methylcyclopentyl (2S)-cyclohexyl({4-[(1E)-3-(hydroxyamino)-3-oxoprop-1-en-1-yl]benzyl}amino)acetate]",331 to 3300,,
,331 to 3300,101 to 1000,> 3300,,,"CC(C)(C)OC[C@H](NCc1ccc(/C=C/C(=O)NO)cc1)C(=O)OC1CCCC1 [Example 16, Cyclopentyl O-tert-butyl-N-{4-[(1E)-3-(hydroxyamino)-3-oxoprop-1-en-1-yl]benzyl}-L-serinate]",331 to 3300,,
,331 to 3300,< 100,331 to 3300,,,"O=C(/C=C/c1cccc(S(=O)(=O)N[C@H](C(=O)OC2CCCC2)C2CCCCC2)c1)NO [Example 2, Cyclopentyl (2S)-cyclohexyl[({3-[(1E)-3-(hydroxyamino)-3-oxoprop-1-en-1-yl]phenyl}sulfonyl)amino]acetate]",331 to 3300,,
,< 330,101 to 1000,> 3300,,,"O=C(/C=C/c1ccc(CN[C@H](C(=O)OC2CCCC2)c2ccccc2)cc1)NO [Example 17, Cyclopentyl (2S)-({4-[(1E)-3-(hydroxyamino)-3-oxoprop-1-en-1-yl]benzyl}amino)(phenyl)acetate]",331 to 3300,,
,< 330,> 1000,> 3300,,,"CC(C)C[C@H](NCc1ccc(CCC(=O)NO)cc1)C(=O)OCCN1CCOCC1 [Example 35, 2-Morpholin-4-ylethyl N-{4-[3-(hydroxyamino)-3-oxopropyl]benzyl}-L-leucinate]",331 to 3300,,
,331 to 3300,101 to 1000,331 to 3300,,,"O=C(/C=C/c1ccc(CN2CCC(CN[C@H](C(=O)OC3CCCC3)C3CCCCC3)CC2)cc1)NO [Example 83, Cyclopentyl (2S)-cyclohexyl{[(1-{4-[(1E)-3-(hydroxyamino)-3-oxoprop-1-en-1-yl]benzyl}piperidin-4-yl)methyl]amino}acetate]",< 330,,
,< 330,101 to 1000,331 to 3300,,,"CC(C)(C)OC[C@H](NCc1ccc(CNCc2ccc(/C=C/C(=O)NO)cc2)cc1)C(=O)OC1CCCC1 [Example 75, Cyclopentyl O-tert-butyl-N-{4-[({4-[(1E)-3-(hydroxyamino)-3-oxoprop-1-en-1-yl]benzyl}amino)methyl]benzyl}-L-serinate]",< 330,,

Structure (SMILES),Hydrolysis Rate Range U937 Cells [1] [pg/mL/min],IC50 (U937 cells; [3]) [nM],"IC50 [2, 4] [nM]",IC50 (HeLa cells) [nM],"IC50 (U937 cells; U937 monocytic cell line, read-out: Inhibition of U937 cell proliferation (IC50-nM)) [nM]",IC50 ([2]; read-out: Inhibition of HDAC (IC50-nM)) [nM],IC50 (HUT78 cells; [5]) [nM],"fold more potent as anti-proliferative agent than belinostat (U937 cells; monocytic cell line U937, versus belinostat) [fold]","IC50 (HUT78 cells; HUT78 non-monocytic cell line, read-out: Inhibition of HUT78 cell proliferation (IC50-nM)) [nM]"
"CC(C)(C)OC[C@H](NS(=O)(=O)c1cccc(/C=C/C(=O)NO)c1)C(=O)OC1CCCC1 [Example 4, Cyclopentyl O-tert-butyl-N-({3-[(1E)-3-(hydroxyamino)-3-oxoprop-1-en-1-yl]phenyl}sulfonyl)-L-serinate]",,331 to 3300,< 100,331 to 3300,,,331 to 3300,,
"O=C(/C=C/c1ccc(C(=O)N[C@H](C(=O)OC2CCCC2)C2CCCCC2)cc1)NO [Example 7, Cyclopentyl (2S)-cyclohexyl({4-[(1E)-3-(hydroxyamino)-3-oxoprop-1-en-1-yl]benzoyl}amino)acetate]",,331 to 3300,101 to 1000,> 3300,,,331 to 3300,,
